Data: patent US20040121946A9, “Inducing cellular immune responses to her2/neu using peptide and nucleic acid compositions” (priority 2002, published 2004)

Experiments:
DRB1*1302 (DR6w19) = DRB1*1302 (DR6w19) (Homo sapiens, UniProt P01903+P01911, A100E/A169T/K41T/L162R/M171V/P40S/Q125H/Q178H/Q39Y/Q99D/R42S/S66N/T262R/V115G/W38E/Y61H); test: HLA class II peptide binding assay, purified HLA; conditions: for DR6w19 binding data: unit not given
DRB1*1501 (DR2w2β1) = DRB1*1501 (DR2w2β1) (Homo sapiens, UniProt P01903+P01911); test: HLA class II peptide binding assay, purified HLA; conditions: for DR2wB1 binding data: Table XIX, DR supermotif peptides; for IC50: Table XXIX, read-out: DR2w2β1 nM
DRB1*0301 (DR3) = DRB1*0301 (DR3) (Homo sapiens, UniProt P01903+P01911, A100K/A102G/A103R/A169T/F55Y/I96L/K41T/L162R/M171V/P40S/Q125H/Q178H/Q39Y/R42S/S66N/T106N/T262R/W38E/Y61H); test: HLA class II peptide binding assay, purified HLA; conditions: unit not given
DRB1*0401 (DR4w4) = DRB1*0401 (DR4w4) (Homo sapiens, UniProt P01903+P01911, A100K/A169T/F76Y/I96L/K127E/L162R/M171V/N62H/P40V/Q125Y/R42H/S133A/S149N/S66Y/V115G/V209L/W38E); test: HLA class II peptide binding assay, purified HLA; conditions: unit not given
DRB1*0101 (DR1) = DRB1*0101 (DR1) (Homo sapiens, UniProt P01903+P01911, A100R/D57E/F55L/F60I/F76Y/I96L/L162R/M171V/P40L/Q125E/R42F/V115G/Y59C); test: HLA class II peptide binding assay, purified HLA; conditions: unit not given
DRB5*0101 (DR2w2β2) = DRB5*0101 (DR2w2β2) (Homo sapiens, UniProt P01903+Q30154); test: HLA class II peptide binding assay, purified HLA; conditions: for DR2w2B2 binding data: unit not given; for IC50: Table XXIX, read-out: DR2w2β2 nM
DRB1*0701 (DR7) = DRB1*0701 (DR7) (Homo sapiens, UniProt P01903+P01911, A100R/A102G/A103Q/D57E/D86V/E43K/F76Y/K127E/L162R/M171V/P40G/Q125H/Q99D/R33Q/R42Y/R54Q/S133A/S66F/T210M/V115G/Y107V/Y59L/Y89S); test: HLA class II peptide binding assay, purified HLA; conditions: unit not given
DRB1*1101 (DR5w11) = DRB1*1101 (DR5w11) (Homo sapiens, UniProt P01903+P01911, A100R/A169T/A87E/I96F/K41T/L162R/M171V/P40S/Q125H/Q178H/Q39Y/Q99D/R42S/S66Y/T262R/V115G/W38E); test: HLA class II peptide binding assay, purified HLA; conditions: for DR5w11 binding data: unit not given
DRB1*0802 (DR8w2) = DRB1*0802 (DR8w2) (Homo sapiens, UniProt P01903+P01911, A100R/A103L/A169T/F76Y/H45Y/I96F/K41T/L162R/M171V/P40S/Q125H/Q178H/Q39Y/Q99D/R218S/R42G/S66Y/V115G/W38E); test: HLA class II peptide binding assay, purified HLA; conditions: for DR8w2 binding data: unit not given
[1] = test system: HLA-DR molecules (DR1, DR4w4, DR7, DRB5*0101, DRB1*1501, DRB1*1101, DRB1*0802, DRB1*1302); test: DR supertype cross-reactive binding; parameters: species or system human; conditions: for No. of DR Alleles Crossbound: Table XXXI; for DR147 Binding / DR147 Cross-binding: number of DR1, DR4w4, DR7 bound; for DR147 Binding: Table XXIX; for DR147 Cross-binding: Table XXVIII; for Broad Binding (5/8): number of the 8 DR alleles bound
HLA-A*3301 = HLA-A*3301 (Homo sapiens, UniProt P04439, A270S/D185E/E176V/E277Q/E87N/F33T/G231S/H175R/I121M/I218V/I322F/K168Q/K210R/L300P/L318F/M331R/P217A/Q86R/Q94H/R138Q/T323A/T345S/T97I/V358M/Y195H); type: binding; conditions: Table XXIII, HLA-A3 supermotif-bearing peptides
HLA-A*6801 = HLA-A*6801 (Homo sapiens, UniProt P04439, A269V/D185E/E176V/E277Q/E87N/F33Y/G231S/I121M/I166T/I218V/L180W/L300P/L318F/N151K/P208A/P217A/Q86R/R169H/T345S); type: binding; conditions: Table XXIII, HLA-A3 supermotif-bearing peptides
HLA-A*0301 = HLA-A*0301 (Homo sapiens, UniProt P04439); type: binding; conditions: Table XXIII, HLA-A3 supermotif-bearing peptides
HLA-A*3101 = HLA-A*3101 (Homo sapiens, UniProt P04439, A270S/D185E/E176V/E277Q/F33T/G231S/G80R/H175R/I121M/I218V/I322F/K168Q/L300P/L318F/M331R/P217A/Q94H/R138Q/T323A/T345S/T97I/V358M); type: binding; conditions: Table XXIII, HLA-A3 supermotif-bearing peptides
HLA-A*1101 = HLA-A*1101 (Homo sapiens, UniProt P04439, A114D/D185E/E176A/F33Y/L180Q/S129P/T187R); type: binding; conditions: Table XXIII, HLA-A3 supermotif-bearing peptides
[2] = Table XIX, DR supermotif peptides
[3] = Table XXa, DR 3a motif peptides

SMILES	DR6w19 binding data (DRB1*1302 (DR6w19); [2])	DR2wB1 binding data (DRB1*1501 (DR2w2β1); unit not given)	DR3 binding data (DRB1*0301 (DR3); [2])	DR4w4 binding data (DRB1*0401 (DR4w4); [2])	DR1 binding data (DRB1*0101 (DR1); [2])	DR2w2B2 binding data (DRB5*0101 (DR2w2β2); [2])	DR7 binding data (DRB1*0701 (DR7); [2])	DR5w11 binding data (DRB1*1101 (DR5w11); [2])	DR8w2 binding data (DRB1*0802 (DR8w2); [2])	No. of DR Alleles Crossbound [1]	DR147 Binding [1]	DR147 Cross-binding [1]	Broad Binding (5/8) [1]	IC50 (HLA-A*3301) [µM]	IC50 (HLA-A*6801) [µM]	IC50 (HLA-A*0301) [µM]	IC50 (HLA-A*3101) [µM]	IC50 (HLA-A*1101) [µM]	further results
CSCC[C@H](NC(=O)[C@@H](NC(=O)[C@H](Cc1ccc(O)cc1)NC(=O)[C@H](C)NC(=O)[C@H](CCC(=O)O)NC(=O)[C@@H](N)CC(=O)O)C(C)C)C(=O)N[C@@H](C)C(=O)NCC(=O)N[C@H](C(=O)NCC(=O)N[C@@H](CO)C(=O)N1CCC[C@H]1C(=O)N[C@@H](Cc1ccc(O)cc1)C(=O)N[C@H](C(=O)N[C@@H](CO)C(=O)O)C(C)C)C(C)C	0.0020	0.0029	0.0010	0.2300	0.0500	0.0240	0.2000	0.0027	0.0570	5	3	3	5	–	–	–	–	–	IC50 (DRB1*1302 (DR6w19); Table XXIX, read-out: DR6w19 nM): 1.75 µM; IC50 (DRB1*1501 (DR2w2β1)): 3.14 µM; IC50 (DRB5*0101 (DR2w2β2)): 0.833 µM; IC50 (DRB1*0802 (DR8w2); Table XXIX, read-out: DR8w2 nM): 0.86 µM
CC[C@H](C)[C@H](NC(=O)[C@H](C)NC(=O)[C@@H](NC(=O)[C@@H]1CCCN1C(=O)[C@@H](NC(=O)[C@H](CCCCN)NC(=O)[C@@H](NC(=O)[C@H](CC(N)=O)NC(=O)[C@H](CCC(=O)O)NC(=O)CN)C(C)C)[C@@H](C)CC)C(C)C)C(=O)N[C@@H](CCCCN)C(=O)N[C@H](C(=O)N[C@@H](CC(C)C)C(=O)N[C@@H](CCCNC(=N)N)C(=O)N[C@@H](CCC(=O)O)C(=O)O)C(C)C	0.0004	0.0047	0.0098	−0.0032	0.0630	0.0034	0.0310	−0.0005	0.0010	–	2	2	2	–	–	–	–	–	–
CC[C@H](C)[C@H](NC(=O)[C@H](CCCNC(=N)N)NC(=O)[C@H](CCSC)NC(=O)[C@@H](N)CCC(N)=O)C(=O)N[C@@H](CC(C)C)C(=O)N[C@@H](CCCCN)C(=O)N[C@@H](CCC(=O)O)C(=O)N[C@H](C(=O)N[C@@H](CCC(=O)O)C(=O)N[C@@H](CC(C)C)C(=O)N[C@@H](CCCNC(=N)N)C(=O)N[C@@H](CCCCN)C(=O)N[C@H](C(=O)N[C@@H](CCCCN)C(=O)N[C@H](C(=O)O)C(C)C)C(C)C)[C@@H](C)O	–	–	–	–	–	–	–	–	–	3	–	–	–	–	–	–	–	–	DR6w19 binding data (DRB1*1302 (DR6w19); [3]): 0.0008; DR2w2B1 binding data (DRB1*1501 (DR2w2β1); Table XXa, DR 3a motif peptides, unit not given): 0.0150; DR3 binding data (DRB1*0301 (DR3); [3]): 0.3200; DR4w4 binding data (DRB1*0401 (DR4w4); [3]): −0.0055; DR1 binding data (DRB1*0101 (DR1); [3]): 0.0419; DR2w2B2 binding data (DRB5*0101 (DR2w2β2); [3]): 0.5900; DR7 binding data (DRB1*0701 (DR7); [3]): 0.0130; DR5w11 binding data (DRB1*1101 (DR5w11); [3]): 0.0041; DR8w2 binding data (DRB1*0802 (DR8w2); [3]): 0.0064
CC[C@H](C)[C@H](NC(=O)CNC(=O)[C@H](CC(=O)O)NC(=O)[C@H](Cc1ccc(O)cc1)NC(=O)[C@@H]1CCCN1C(=O)[C@H](CCCCN)NC(=O)[C@H](C)NC(=O)CNC(=O)[C@H](Cc1ccccc1)NC(=O)[C@@H](NC(=O)[C@H](CCSC)NC(=O)[C@H](CC(C)C)NC(=O)[C@H](CCC(=O)O)NC(=O)[C@H](Cc1c[nH]c2ccccc12)NC(=O)[C@@H](N)C(C)C)[C@@H](C)O)C(=O)O	0.0004	0.0990	0.0010	0.0550	0.0870	0.1000	0.0370	0.0054	0.0089	5	3	3	5	–	–	–	–	–	IC50 (DRB1*1501 (DR2w2β1)): 0.092 µM; IC50 (DRB5*0101 (DR2w2β2)): 0.2 µM; IC50 (DRB1*1101 (DR5w11); Table XXIX, read-out: DR5w11 nM): 3.7 µM
CC[C@H](C)[C@H](NC(=O)[C@H](CCC(=O)O)NC(=O)[C@@H](NC(=O)[C@H](CC(C)C)NC(=O)[C@H](CO)NC(=O)[C@H](CCCNC(=N)N)NC(=O)[C@H](CC(C)C)NC(=O)[C@@H](N)CCC(N)=O)[C@@H](C)O)C(=O)N[C@@H](CC(C)C)C(=O)N[C@@H](CCCCN)C(=O)O [Her2/neu.141]	–	–	–	–	–	–	–	–	–	–	–	–	–	6.17	> 10	0.055	0.667	0.462	–
CC[C@H](C)[C@H](N)C(=O)N[C@H](C(=O)N[C@@H](CCCCN)C(=O)NCC(=O)NCC(=O)N[C@H](C(=O)N[C@@H](CC(C)C)C(=O)N[C@H](C(=O)N[C@@H](CCC(N)=O)C(=O)N[C@@H](CCCCN)C(=O)O)[C@@H](C)CC)C(C)C)C(C)C [Her2/neu.148.V2K10]	–	–	–	–	–	–	–	–	–	–	–	–	–	6.59	0.027	0.026	0.45	0.102	–
CC[C@H](C)[C@H](N)C(=O)N[C@H](C(=O)N[C@@H](CCCCN)C(=O)NCC(=O)NCC(=O)N[C@H](C(=O)N[C@@H](CC(C)C)C(=O)N[C@H](C(=O)N[C@@H](CCC(N)=O)C(=O)N[C@@H](CCCNC(=N)N)C(=O)O)[C@@H](C)CC)C(C)C)C(C)C [Her2/neu.148.V2]	–	–	–	–	–	–	–	–	–	–	–	–	–	–	0.029	0.275	0.072	7.5	–
CC[C@H](C)[C@H](N)C(=O)N[C@@H](CC(C)C)C(=O)N[C@@H](CCCCN)C(=O)NCC(=O)NCC(=O)N[C@H](C(=O)N[C@@H](CC(C)C)C(=O)N[C@H](C(=O)N[C@@H](CCC(N)=O)C(=O)N[C@@H](CCCNC(=N)N)C(=O)O)[C@@H](C)CC)C(C)C [Her2/neu.148]	–	–	–	–	–	–	–	–	–	–	–	–	–	0.121	0.205	0.275	0.025	> 10	–
CC[C@H](C)[C@H](NC(=O)[C@H](CC(=O)O)NC(=O)[C@H](CCCCN)NC(=O)[C@H](Cc1c[nH]c2ccccc12)NC(=O)[C@H](CC(C)C)NC(=O)[C@@H](NC(=O)[C@@H](N)[C@@H](C)O)C(C)C)C(=O)N[C@@H](Cc1ccccc1)C(=O)N[C@@H](Cc1c[nH]cn1)C(=O)N[C@@H](CCCNC(=N)N)C(=O)O [Her2/neu.166.V2R10]	–	–	–	–	–	–	–	–	–	–	–	–	–	0.076	0.042	8.46	0.6	0.286	–
CC(C)[C@H](NC(=O)[C@@H](NC(=O)[C@@H](N)CCCNC(=N)N)[C@@H](C)O)C(=O)N[C@@H](CS)C(=O)N[C@@H](C)C(=O)NCC(=O)NCC(=O)N[C@@H](CS)C(=O)N[C@@H](C)C(=O)N[C@@H](CCCNC(=N)N)C(=O)O [Her2/neu.217]	–	–	–	–	–	–	–	–	–	–	–	–	–	–	0.32	1.62	0.04	0.462	–
